The assay concerns Jurkat cells. The experiment in a line: HPLC determination of AZT metabolites in cells treated with 100 μM AZT. Format: cell-based, human. The settings on record: 36 hrs. On the procedure:
The cells were cultured in the presence of 100 μM AZT for 36 hrs. 10^7 cells were homogenized by sonication in 100 μl of 5% (w/v) trichloroacetic acid. The supernatant is collected after homogenate had been centrifuged at 10,000×g for 15 min at 4° C. The trichloroacetic acid was removed by extraction with an equal volume of 20% tri-n-octylamine in pentane. The neutralized aqueous fraction is directly injected into HPLC. Separation of AZT and its metabolites was performed on a C18 column (Waters) with a mobile phase composed of 0.2 M phosphate buffer containing 4 mM tetrabutylammonium hydrogen sulfate (pH 7.5) and acetonitrile in the ratio of 97:3 (v/v). The mobile phase was pumped at a flow rate of 1.5 ml/min. The UV absorbance was monitored at 270 nm. Five million cell equivalents were injected and analyzed in triplicate.

As for `Cc1cn([C@H]2C[C@H](N=[N+]=[N-])[C@@H](CO)O2)c(=O)[nH]c1=O` [AZT, 3′-azido-3′-deoxythymidine], the “conversion ratio of AZT-TP to AZT-MP in non-transduced cells” value is given as 0.02.
